Results as given in patent publication US8906868B2, “Aminoglycoside derivatives” (Rempex Pharmaceuticals, Inc., priority 2010, dated 2014).

Key:
various bacteria = experiment: MICs of 44 and 45, representative strains and strains expressing aminoglycoside modifying enzymes; assay type: cell-based; conditions: Tables 7 and 8, frequently
Experimental: (§1) To compare microbiological activity of the test compounds, minimum inhibitory concentrations (MIC.s) were determined. Antibiotic MICs were obtained using the broth microdilution method according to Clinical and Laboratory Standards Institute (CLSI) approved guidelines (Methods for dilution antimicrobial susceptibility tests for bacteria that grow aerobically; approved standard—7th ed. CLSI document M7-A7. Clinical and Laboratory Standards Institute, Wayne, Pa., incorporated herein by reference in its entirety). Antibiotics were dissolved as specified by CLSI (Performance standards for antimicrobial susceptibility testing; Seventeenth informational supplement. CLSI document M100-S17. Clinical and Laboratory Standards Institute, Wayne, Pa., incorporated herein by reference in its entirety), and were serially diluted 2-fold in cation adjusted Mueller Hinton Broth (CaMHB) at 2× concentration. Bacterial inoculums were prepared in CaMHB by suspension of a colony from an agar plate that was prepared the previous day to obtain a final concentration of 5×10^5CFU/ml. The plates were incubated for 18 hours at 35° C. […] MIC.s were determined by reading the turbidity of plate wells using a SpectraMax Plus384 plate reader (Molecular Devices, Sunnyvale, Calif., USA) at 600 nm and were confirmed by visual inspection.

[1] = system: Escherichia coli EC1003 aac(3)I; experiment: MIC, strains expressing aminoglycoside modifying enzymes; assay type: cell-based; conditions: read-out: MIC Escherichia coli EC1003 aac(3)I
Experimental: as §1

rats = experiment: Nephrotoxicity of test compounds in rats; conditions: once daily subcutaneous

SMILES | fold more active than 45 (MIC) (various bacteria) | MIC [1] [µg/mL] | Histopathology Results After 7 days of Dosing (rats; 30 mg/kg/day) | Histopathology Results After 14 days of Dosing (rats; 30 mg/kg/day) | Histopathology Results After 7 days of Dosing (rats; 60 mg/kg/day) | Histopathology Results After 14 days of Dosing (rats; 60 mg/kg/day)
CN[C@@H]1C(O)[C@@H](OC2C(O)C(O[C@H]3O[C@H](CNC[C@@H](O)CO)CCC3N)[C@@H](N)C[C@H]2NC(=O)[C@@H](O)CN)OCC1(C)O (stereo partly shown) [Compound 44] | 2- to 4 fold | < 1 | No change | No change | No change | Minimal Hyaline-droplet
CN[C@@H]1[C@@H](O)[C@@H](O[C@@H]2[C@@H](O)[C@H](O[C@H]3O[C@H](CNC[C@H](O)CO)CC[C@H]3N)[C@@H](N)C[C@H]2NC(=O)[C@@H](O)CN)OC[C@]1(C)O [Compound 45, (S)-3-amino-N-((1R,2S,3S,4R,5S)-5-amino-4-((2R,3R,6S)-3-amino-6-(((S)-2,3-dihydroxypropylamino)methyl)tetrahydro-2H-pyran-2-yloxy)-2-((2R,3R,4R,5R)-3,5-dihydroxy-5-methyl-4-(methylamino)tetrahydro-2H-pyran-2-yloxy)-3-hydroxycyclohexyl)-2-hydroxypropanamide] | – | < 1 | – | – | – | –
